Assay results from PMC10979105, “A simple method to resolve rate constants when the binding mechanism obeys induced fit or conformational selection” (The Journal of Biological Chemistry, 2024).
Where “and” joins values, the source holds several entries; their conditions need not be identical. Equal values may be shown once. Read-outs that look alike come from different tables or passages of the source.

Columns and labels:
[1] = tested on: thrombin mutant S195A; experiment: Equilibrium titration of intrinsic fluorescence, FPR binding to thrombin; conditions: thrombin versus prethrombin-2
Text: Figure 3 Binding of FPR to thrombin.A, rapid kinetics of FPR binding to thrombin showing the fast ( α1 ) and slow ( α2 ) relaxations defining a mechanism of binding consistent with IF or CS (see also Fig. 1A). Continuous lines depict Equations 3 and 4 in the original report ([30]) with best-fit parameter values of Equation 1 or Equation 2 listed in Table 2. […] The discontinuous line for the slow relaxation was drawn with the empirical expression [α(0)xm+α(∞)x]/(xm+x) , where x = [FPR], with best-fit parameters listed in Table 2. The discontinuous line for the fast relaxation was drawn using Equation 3 with the four independent rate constants obtained from application of Equation 11 (Table 2). […] The four independent rate constants derived from application of the method compare well with the values determined from application of Equations 3 and 4 in the original report ([30]). […]
The value of Kd,app is obtained from titration of intrinsic fluorescence at equilibrium (Figs. 2B and 3B) according to the expression(13) F(x)=F0Kd,app+F1x/Kd,app+x=F0(1−ϑ)+F1ϑ where ϑ=x/(Kd,app+x) is the fractional saturation (Figs. 1C, 2B and 3B). […] At each value of the ligand concentration, the change in absorbance from the initial ( t=0 ) to final ( t=∞ ) state gives the equilibrium reading equivalent to F(x) in Equation 13.

[2] = target: prothrombin; set-up: method as in PMID 29511224; conditions: fluorescence titration at equilibrium; 400 mM ChCl, 50 mM Tris, 0.1% PEG8000, pH 8, 15 °C; read-out: Kd,app; cited from earlier work
[3] = target: thrombin mutant S195A; set-up: method as in PMID 29511224; conditions: fluorescence titration at equilibrium; 400 mM ChCl, 50 mM Tris, 0.1% PEG8000, pH 8, 15 °C; read-out: Kd,app; cited from earlier work
[4] = tested on: prothrombin; experiment: Rapid kinetics (stopped-flow) of FPR binding to prothrombin; conditions: model independent, fit of data from ref 30
Text: (§1) Figure 2 Binding of FPR to thrombin zymogens.A, rapid kinetics of FPR binding to the zymogens prothrombin (closed circles) and prethrombin-2 (open circles), showing a saturable relaxation associated with the interaction. The lack of information on a fast relaxation increasing linearly with [FPR] prevented assignment of the value of kon in the original report ([30]). Curves were drawn with the empirical expression [α(0)xm+α(∞)x]/(xm+x) , where x =[FPR], with best-fit parameters listed in Table 2. B, fractional saturation of FPR binding to prothrombin (closed circles) and prethrombin-2 (open circles). These values, together with the parameters derived from the plots in panel A, allow for derivation of the value of kon from Equation 11. […] Data in panels A and B were taken from ([30]) and were obtained under the following experimental conditions: 400 mM ChCl, 50 mM Tris, 0.1% PEG8000, pH 8, at 15 °C. CS, conformational selection; FPR, H-D-Phe-Pro-Arg-p-nitroanilide; IF, induced fit.
The method also offers a simple test of whether the experimental data under consideration require more complex binding mechanisms than IF or CS. This is an important property of the method that may prompt reconsideration of current interpretations of ligand binding in terms of IF or CS made from analysis of a single saturable relaxation. The denominator of Equation 11 introduces a constraint on the relative values of Kd,app and xm . If the resulting term is negative, the model independent parameters (Equations (5), (6), (7) and 10) of the slow relaxation cannot be interpreted in terms of IF or CS. The data describing the kinetic relaxation (Fig. 1, A and B) and equilibrium binding (Fig. 1C) become incompatible when interpreted with Equations 9 and 10 and more elaborate mechanisms should be considered. We illustrate this point for the case of FPR binding to prothrombin, which is the physiological zymogen precursor of thrombin ([23]). Prothrombin is composed of a protease domain identical to prethrombin-2 linked to additional kringles and Gla domains that are shed during activation to thrombin by prothrombinase in the penultimate step of the coagulation cascade ([23], [31]). Because prothrombin and prethrombin-2 share the same protease domain, binding of FPR may be expected to take place with a similar affinity and mechanism in the two zymogens. […]
The data analyzed in this study, that is, FPR binding to prethrombin-2, prothrombin, and thrombin (Figs. 2, A and B and 3, A and B) were taken from ([30]) without modification. […] Values of the slow relaxation α(x) (Fig. 1, A and B, 2A and 3A) are measured by stopped-slow as a function of the ligand concentration and derived from fit of the time evolution of the interaction according to the expression ([1])(12) A(x,t)=A0(x)+A1(x)exp{−α(x)t}

[5] = target: prethrombin-2 (S195A mutant); set-up: method as in PMID 29511224; conditions: fluorescence titration at equilibrium; 400 mM ChCl, 50 mM Tris, 0.1% PEG8000, pH 8, 15 °C; read-out: Kd,app; cited from earlier work
[6] = tested on: thrombin mutant S195A; set-up: method as in PMID 29511224; conditions: cited from earlier work
[7] = tested on: prethrombin-2 (S195A mutant); experiment: Rapid kinetics (stopped-flow) of FPR binding to prethrombin-2
Text: Rapid kinetics of FPR binding to thrombin resolved the two independent relaxations (Equations 3 and 4) for CS and the four independent rate constants. On the other hand, similar measurements for prethrombin-2 produced only a saturable relaxation increasing with [FPR] (Fig. 2A) ([30]), thereby preventing resolution of the four independent constants and a full comparison with the mature protease thrombin. This situation provides an ideal test for application of the method based on Equation 11. The saturable relaxation for FPR binding to prethrombin-2 increases from α(0) = […] to α(∞) = 150 ± 20 s^−1, with a midpoint xm = 200 ± 20 μM and α(xm) = 88 ± 9 s^−1 (Fig. 2A and Table 2). […] Interpretation of the saturable relaxation in terms of CS gives k12 = 150 ± 20 s^−1 and koff = 25 ± 3 s^−1. Application of Equation 11 then yields kon = 4.0 ± 0.4 μM^−1s^−1 and Equation 9 gives αˆ(0)=k12+k21 = 890 ± 90 s^−1, so k21 = 740 ± 70 s^−1 (Table 2). The value of kon is almost identical to that reported for the mature protease thrombin (2.6 ± 0.3 μM^−1s^−1), whilst the value of koff is 40-fold higher (25 ± 3 s^−1 versus 0.60 ± 0.06 s^−1) ([30]). […] The conclusion is independent of whether FPR binding to prethrombin-2 is interpreted according to CS or IF. Application of the conversion formulas in Table 1 gives rate constants for IF equal to kon = 4.0 ± 0.4 μM^−1s^−1, koff = 765 ± 80 s^−1, k23 = 120 ± 10 s^−1, and k32 = 29 ± 3 s^−1 (Table 2), thereby making the contribution of a decreased rate of dissociation in the protease even more evident. Importantly, the two sets of rate constants for IF and CS yield the same value for Kd,app (Table 2), as shown by application of Equation 10 and the conversion formulas in Table 1. The importance of koff in setting the difference between ligand binding to prethrombin-2 and thrombin was anticipated by previous studies ([30]). The method based on Equation 11 provides a quantitative estimate of the difference and adds rigor to previous conclusions.
as §1
(§2) The data analyzed in this study, that is, FPR binding to prethrombin-2, prothrombin, and thrombin (Figs. 2, A and B and 3, A and B) were taken from ([30]) without modification. The methodology used to produce the recombinant proteins, measure FPR binding by stopped-flow or equilibrium titrations is reported in ([30]) and references therein. Values of the slow relaxation α(x) (Fig. 1, A and B, 2A and 3A) are measured by stopped-slow as a function of the ligand concentration and derived from fit of the time evolution of the interaction according to the expression ([1])(12) A(x,t)=A0(x)+A1(x)exp{−α(x)t}

[8] = tested on: thrombin mutant S195A; experiment: Rapid kinetics (stopped-flow) of FPR binding to thrombin
Text: An important validation of the method is offered by application to a case where all rate constants have been determined from analysis of the two relaxations (Equations 3 and 4). In this case, one can assume no knowledge of the fast relaxation and consider only the slow relaxation and equilibrium titrations. We illustrate this point using FPR binding to the thrombin mutant S195A, inactivated at the catalytic S195 to prevent hydrolysis ([30]). Two relaxations were reported for this case, along with equilibrium titrations (Fig. 3, A and B). Analysis of the slow relaxation α2(x) yields α(0) = 0.60 ± 0.06 s^−1, α(∞) = 17 ± 2 s^−1, xm = 4.3 ± 0.4 μM, and α(xm) = 8.8 ± 0.9 s^−1 (Fig. 3A and Table 2). […] Interpretation of the binding mechanism in terms of CS gives k12 = 17 ± 2 s^−1 and koff = 0.60 ± 0.06 s^−1. Application of Equation 11 yields kon = 2.4 ± 0.2 μM^−1s^−1 and Equation 9 gives αˆ(0)=k12+k21 = 19 ± 2 s^−1 from which a value of k21 = 2.0 ± 0.2 s^−1 can be obtained (Table 2). These values are in excellent agreement with the ones reported originally from analysis of the two independent relaxations (Table 2) ([30]). When used in Equation 3 to predict the dependence of the fast relaxation α1(x) on [FPR], the curve (discontinuous line) deviates little from experimental data (Fig. 3A, top portion of the panel). Values derived from analysis of the two relaxations are obviously more rigorous and should be preferred when available, but the accuracy of values obtained by application of the method based on Equation 11 is noteworthy. The discrepancies in Table 2 between values of k21 for CS or koff and k32 for IF are small and the fast relaxation ( α1 in Fig. 3A) predicted from knowledge of a single, saturable relaxation ( α2 in Fig. 3A), and equilibrium binding measurements (Fig. 3B) is in excellent agreement with experimental data.
Figure 3 Binding of FPR to thrombin.A, rapid kinetics of FPR binding to thrombin showing the fast ( α1 ) and slow ( α2 ) relaxations defining a mechanism of binding consistent with IF or CS (see also Fig. 1A). Continuous lines depict Equations 3 and 4 in the original report ([30]) with best-fit parameter values of Equation 1 or Equation 2 listed in Table 2. […] The discontinuous line for the slow relaxation was drawn with the empirical expression [α(0)xm+α(∞)x]/(xm+x) , where x = [FPR], with best-fit parameters listed in Table 2. The discontinuous line for the fast relaxation was drawn using Equation 3 with the four independent rate constants obtained from application of Equation 11 (Table 2). The predicted fast relaxation (discontinuous line) approximates quite well the actual experimental data and lends confidence to the validity of the method. B, fractional saturation of FPR binding to thrombin. […] This value, together with the parameters derived from analysis of the slow relaxation in panel A, allows for derivation of the value of kon from Equation 11. The four independent rate constants derived from application of the method compare well with the values determined from application of Equations 3 and 4 in the original report ([30]). Data in panels A and B were taken from ([30]) and were obtained under the following experimental conditions: 400 mM ChCl, 50 mM Tris, 0.1% PEG8000, pH 8, at 15 °C. CS, conformational selection; FPR, H-D-Phe-Pro-Arg-p-nitroanilide; IF, induced fit.
as §2

[9] = CS, from analysis of two relaxations
[10] = IF, conversion formulas of Table 1
[11] = model independent, derived from Equation 11
[12] = model independent, 400 mM ChCl, 50 mM Tris, 0.1% PEG8000, pH 8, 15 °C, fit of data from ref 30
[13] = model independent, pH 8, 15 °C, fit of data from ref 30

difference in equilibrium binding affinity between prethrombin-2 and thrombin [1]: > 100 fold
α(0), asymptote of slow relaxation ([4]; 400 mM ChCl, 50 mM Tris, 0.1% PEG8000, pH 8, 15 °C): 45 ± 4 s⁻¹ and 45 ± 5 s⁻¹
xm, midpoint of the slow relaxation ([4]; pH 8, 15 °C): 54 ± 5 µM
α(xm), slow relaxation at midpoint ([4]; pH 8, 15 °C): 26 ± 3 s⁻¹
α(∞), asymptote of slow relaxation ([4]; pH 8, 15 °C): 6.9 ± 0.7 s⁻¹
αˆ(0)=k12+k21 ([7]; CS, from Equation 9): 890 ± 90 s⁻¹
k12 ([7]; CS, method of this paper): 150 ± 20 s⁻¹ and 150 ± 10 s⁻¹
k21 ([7]; CS, method of this paper): 740 ± 70 s⁻¹
koffCS ([7]; CS, method of this paper): 25 ± 3 s⁻¹
konCS ([7]; CS, method of this paper): 4e+06 ± 400000 M⁻¹ s⁻¹
koff higher for prethrombin-2 than for thrombin ([7]; CS, prethrombin-2 versus thrombin): 40 fold
k23 [7, 10]: 120 ± 10 s⁻¹
k32 [7, 10]: 29 ± 3 s⁻¹
koffIF [7, 10]: 765 ± 80 s⁻¹
konIF [7, 10]: 4e+06 ± 400000 M⁻¹ s⁻¹
kon [7, 11]: 4e+06 ± 400000 M⁻¹ s⁻¹
α(0), lower asymptote of slow relaxation [7, 12]: 25 ± 0.3 s⁻¹ and 25 ± 2 s⁻¹
xm, midpoint of the slow relaxation [7, 13]: 200 ± 20 µM
α(xm), slow relaxation at midpoint [7, 13]: 88 ± 9 s⁻¹
α(∞), asymptote of slow relaxation [7, 13]: 150 ± 20 s⁻¹ and 150 ± 10 s⁻¹
αˆ(0)=k12+k21 ([8]; CS, from Equation 9): 19 ± 2 s⁻¹
k12 ([8]; CS, method of this paper): 17 ± 2 s⁻¹
k21 ([8]; CS, method of this paper): 2.0 ± 0.2 s⁻¹
koffCS ([8]; CS, method of this paper): 0.60 ± 0.06 s⁻¹
konCS ([8]; CS, method of this paper (Equation 11)): 2.4e+06 ± 200000 M⁻¹ s⁻¹
k23 ([8]; IF, method of this paper): 13 ± 1 (13 ± 1) s^−1
k32 ([8]; IF, method of this paper): 4.4 ± 0.4 s⁻¹
koffIF ([8]; IF, method of this paper): 2.6 ± 0.3 s⁻¹
konIF ([8]; IF, method of this paper): 2.4e+06 ± 200000 M⁻¹ s⁻¹
kon [8, 11]: 2.4e+06 ± 200000 M⁻¹ s⁻¹
α(0), lower asymptote of slow relaxation [8, 12]: 0.60 ± 0.06 s⁻¹
α(∞), asymptote of slow relaxation [8, 12]: 17 ± 2 s⁻¹
xm, midpoint of the slow relaxation [8, 13]: 4.3 ± 0.4 µM
α(xm), slow relaxation at midpoint [8, 13]: 8.8 ± 0.9 s⁻¹
Structure (SMILES): N=C(N)NCCC[C@H](NC(=O)[C@@H]1CCCN1C(=O)[C@H](N)Cc1ccccc1)C(=O)Nc1ccc([N+](=O)[O-])cc1 [FPR, H-D-Phe-Pro-Arg-p-nitroanilide]
Kd [2]: 195 ± 20 µM
Kd [3]: 0.28 ± 0.02 µM
Kd [5]: 37 ± 4 µM
k12 [6, 9]: 16 ± 1 s⁻¹
k21 [6, 9]: 3.8 ± 0.8 s⁻¹
koffCS [6, 9]: 0.6 ± 0.1 s⁻¹
konCS [6, 9]: 2.6e+06 ± 300000 M⁻¹ s⁻¹
k23 ([6]; IF): 13 ± 1 (13 ± 1) s^−1
k32 ([6]; IF): 2.6 ± 0.3 s⁻¹
koffIF ([6]; IF): 4.4 ± 0.4 s⁻¹
konIF ([6]; IF): 2.6e+06 ± 300000 M⁻¹ s⁻¹
